Assay results as given in US20100215579A1, “PHEN-NAPHTHALENE AND PHEN-QUINOLINE DERIVATIVES AND THEIR USE FOR BINDING AND IMAGING AMYLOID PLAQUES” (The Trustees of the University of Pennsylvania, priority 2007, published 2010).
Blank lines part the entries; values can stand above or below the compound they belong to.

Key:
[1] = Log P (octanol/Na2HPO4 buffer pH 7.4); type: physicochemical
amyloid plaques = biological target: T1, amyloid plaques (Homo sapiens, UniProt P05067); experiment: Ki values of Phen-Nap, Nap-Phen derivatives (Ki binding data)
T1 construct: fibrillary Aβ plaques consisting predominately of aggregates of Aβ40 and Aβ42 peptides
T1 sequence (P05067 672-713 limits assumed): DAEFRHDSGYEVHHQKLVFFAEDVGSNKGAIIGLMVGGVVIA
T1 sequence (P05067 672-711 limits assumed): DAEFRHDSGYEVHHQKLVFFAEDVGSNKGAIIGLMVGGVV

[2] = Biodistribution in ICR mice after an iv injection; type: in vivo
Description: Biodistribution in ICR Mice After an iv Injection of [^18F][4-(6-{2-[2-(2-Fluoro-ethoxy)-ethoxy]-ethoxy}-naphthalen-2-yl)-phenyl]-methyl-amine in 1% EtOH/0.1% BSA in Water
(% dose/organ, avg of 3 mice±SD)
(% dose/g, avg of 3 mice±SD)
Biodistribution in ICR Mice After an iv Injection of [^18F]19a in 3% EtOH/0.1% BSA in Water
Biodistribution in ICR Mice After an iv Injection of [^18F]34a in 5% EtOH/0.1% BSA in Water
Biodistribution in ICR Mice After an iv Injection of [^18F]32a in 1% EtOH/0.1% BSA in Water

[3] = Blood, 2 min after iv injection
[4] = Blood, 30 min after iv injection
[5] = Bone, 30 min after iv injection
[6] = Brain, 2 min after iv injection
[7] = Brain, 30 min after iv injection
[8] = Heart, 2 min after iv injection
[9] = Heart, 30 min after iv injection
[10] = Kidney, 2 min after iv injection
[11] = Kidney, 30 min after iv injection
[12] = Kidney, 1 hr after iv injection
[13] = Kidney, 2 hr after iv injection
[14] = Liver, 2 min after iv injection
[15] = Liver, 30 min after iv injection
[16] = Lung, 30 min after iv injection
[17] = Muscle, 2 min after iv injection
[18] = Muscle, 30 min after iv injection
[19] = Muscle, 1 hr after iv injection
[20] = Muscle, 2 hr after iv injection
[21] = Skin, 30 min after iv injection
[22] = Spleen, 2 min after iv injection
[23] = Spleen, 30 min after iv injection
[24] = Spleen, 1 hr after iv injection
[25] = Spleen, 2 hr after iv injection

logP ([1]; pH 7.4): 3.22
Ki (amyloid plaques): 1.6 nM
SMILES: CNc1ccc(-c2ccc3cc(OCCOCCOCCF)ccc3c2)cc1 [Compound 13a, 4-(6-(2-(2-(2-fluoroethoxy)ethoxy)ethoxy)naphthalen-2-yl)-N-methylbenzenamine]

Log P ([1]; octanol/0.05 M Na2HPO4 buffer (pH 7.4)): 3.23
% dose/g [2, 3]: 2.50 ± 0.14 % dose/g
% dose/organ [2, 3]: 4.29 ± 0.20 % dose/organ
% dose/g [2, 4]: 1.49 ± 0.15 % dose/g
% dose/organ [2, 4]: 2.51 ± 0.18 % dose/organ
% dose/g ([2]; Blood, 1 hr after iv injection): 1.61 ± 0.12 % dose/g
% dose/organ ([2]; Blood, 1 hr after iv injection): 2.87 ± 0.20 % dose/organ
% dose/g ([2]; Blood, 2 hr after iv injection): 1.52 ± 0.23 % dose/g
% dose/organ ([2]; Blood, 2 hr after iv injection): 2.58 ± 0.26 % dose/organ
% dose/g ([2]; Bone, 2 min after iv injection): 1.11 ± 0.11 % dose/g
% dose/organ ([2]; Bone, 2 min after iv injection): 3.82 ± 0.33 % dose/organ
% dose/g [2, 5]: 1.16 ± 0.20 % dose/g
% dose/organ [2, 5]: 3.87 ± 0.43 % dose/organ
% dose/g ([2]; Bone, 1 hr after iv injection): 1.49 ± 0.18 % dose/g
% dose/organ ([2]; Bone, 1 hr after iv injection): 5.31 ± 0.31 % dose/organ
% dose/g ([2]; Bone, 2 hr after iv injection): 2.33 ± 0.43 % dose/g
% dose/organ ([2]; Bone, 2 hr after iv injection): 7.84 ± 0.91 % dose/organ
% dose/g [2, 6]: 10.2 ± 1.09 % dose/g
% dose/organ [2, 6]: 4.61 ± 0.60 % dose/organ
% dose/g [2, 7]: 2.23 ± 0.29 % dose/g
% dose/organ [2, 7]: 1.02 ± 0.11 % dose/organ
% dose/g ([2]; Brain, 1 hr after iv injection): 1.88 ± 0.20 % dose/g
% dose/organ ([2]; Brain, 1 hr after iv injection): 0.90 ± 0.08 % dose/organ
% dose/g ([2]; Brain, 2 hr after iv injection): 1.90 ± 0.25 % dose/g
% dose/organ ([2]; Brain, 2 hr after iv injection): 0.85 ± 0.12 % dose/organ
% dose/g [2, 8]: 10.7 ± 2.06 % dose/g
% dose/organ [2, 8]: 1.26 ± 0.20 % dose/organ
% dose/g [2, 9]: 2.86 ± 0.30 % dose/g
% dose/organ [2, 9]: 0.36 ± 0.05 % dose/organ
% dose/g ([2]; Heart, 1 hr after iv injection): 2.20 ± 0.31 % dose/g
% dose/organ ([2]; Heart, 1 hr after iv injection): 0.29 ± 0.03 % dose/organ
% dose/g ([2]; Heart, 2 hr after iv injection): 1.71 ± 0.13 % dose/g
% dose/organ ([2]; Heart, 2 hr after iv injection): 0.19 ± 0.01 % dose/organ
% dose/g [2, 10]: 13.6 ± 0.10 % dose/g
% dose/organ [2, 10]: 5.22 ± 0.33 % dose/organ
% dose/g [2, 11]: 4.41 ± 0.49 % dose/g
% dose/organ [2, 11]: 1.69 ± 0.22 % dose/organ
% dose/g [2, 12]: 3.57 ± 0.64 % dose/g
% dose/organ [2, 12]: 1.36 ± 0.09 % dose/organ
% dose/g [2, 13]: 2.47 ± 0.45 % dose/g
% dose/organ [2, 13]: 1.00 ± 0.24 % dose/organ
% dose/g [2, 14]: 18.2 ± 0.95 % dose/g
% dose/organ [2, 14]: 21.2 ± 0.76 % dose/organ
% dose/g [2, 15]: 11.9 ± 1.63 % dose/g
% dose/organ [2, 15]: 14.2 ± 0.91 % dose/organ
% dose/g ([2]; Liver, 1 hr after iv injection): 8.99 ± 1.19 % dose/g
% dose/organ ([2]; Liver, 1 hr after iv injection): 11.8 ± 0.65 % dose/organ
% dose/g ([2]; Liver, 2 hr after iv injection): 6.72 ± 0.58 % dose/g
% dose/organ ([2]; Liver, 2 hr after iv injection): 8.29 ± 1.09 % dose/organ
% dose/g ([2]; Lung, 2 min after iv injection): 6.83 ± 0.07 % dose/g
% dose/organ ([2]; Lung, 2 min after iv injection): 1.34 ± 0.03 % dose/organ
% dose/g [2, 16]: 2.87 ± 0.32 % dose/g
% dose/organ [2, 16]: 0.54 ± 0.06 % dose/organ
% dose/g ([2]; Lung, 1 hr after iv injection): 2.42 ± 0.34 % dose/g
% dose/organ ([2]; Lung, 1 hr after iv injection): 0.48 ± 0.06 % dose/organ
% dose/g ([2]; Lung, 2 hr after iv injection): 1.96 ± 0.29 % dose/g
% dose/organ ([2]; Lung, 2 hr after iv injection): 0.36 ± 0.05 % dose/organ
% dose/g [2, 17]: 0.65 ± 0.01 % dose/g
% dose/organ [2, 17]: 6.40 ± 0.14 % dose/organ
% dose/g [2, 18]: 1.50 ± 0.21 % dose/g
% dose/organ [2, 18]: 14.5 ± 2.59 % dose/organ
% dose/g [2, 19]: 1.33 ± 0.17 % dose/g
% dose/organ [2, 19]: 13.5 ± 0.83 % dose/organ
% dose/g [2, 20]: 0.98 ± 0.08 % dose/g
% dose/organ [2, 20]: 9.55 ± 0.31 % dose/organ
% dose/g ([2]; Skin, 2 min after iv injection): 0.58 ± 0.07 % dose/g
% dose/organ ([2]; Skin, 2 min after iv injection): 2.13 ± 0.27 % dose/organ
% dose/g [2, 21]: 1.03 ± 0.12 % dose/g
% dose/organ [2, 21]: 3.70 ± 0.28 % dose/organ
% dose/g ([2]; Skin, 1 hr after iv injection): 1.47 ± 0.12 % dose/g
% dose/organ ([2]; Skin, 1 hr after iv injection): 5.67 ± 0.85 % dose/organ
% dose/g ([2]; Skin, 2 hr after iv injection): 1.12 ± 0.05 % dose/g
% dose/organ ([2]; Skin, 2 hr after iv injection): 4.12 ± 0.12 % dose/organ
% dose/g [2, 22]: 4.11 ± 1.02 % dose/g
% dose/organ [2, 22]: 0.47 ± 0.08 % dose/organ
% dose/g [2, 23]: 2.16 ± 0.05 % dose/g
% dose/organ [2, 23]: 0.21 ± 0.00 % dose/organ
% dose/g [2, 24]: 1.89 ± 0.27 % dose/g
% dose/organ [2, 24]: 0.17 ± 0.01 % dose/organ
% dose/g [2, 25]: 1.48 ± 0.20 % dose/g
% dose/organ [2, 25]: 0.14 ± 0.02 % dose/organ
SMILES: CNc1ccc(-c2ccc3nc(OCCOCCOCC[18F])ccc3c2)cc1 [[^18F]34a]
